Glass transition temperature data for 46 compounds are collected here from the PolyMetriX glass transition set.

As to `*/C(Cl)=C(/*)CCCC` (repeat unit), the glass transition temperature is 190.00 °C.
For the compound `*C(=O)OCCN(CCOC(=O)c1ccc2c(c1)C(=O)N(c1cccc(N3C(=O)c4ccc(*)cc4C3=O)c1)C2=O)c1ccc(/N=N/c2ccc(C)cc2)cc1` (repeat unit), the glass transition temperature was 171.00 °C.
`*C(CC(C)C)C(=O)Nc1ccc(Oc2ccc(NC(=O)NCC3(C)CC(NC(=O)Nc4ccc(Oc5ccc(NC(=O)C(CC(C)C)n6c(=O)c7cc8c(=O)n(*)c(=O)c8cc7c6=O)cc5)cc4)CC(C)(C)C3)cc2)cc1` (repeat unit) came in with a glass transition temperature of 147.50 °C.
Consider `*CC#CC#CCOc1ccc(C(=O)OCCN(CCOC(=O)c2ccc(O*)cc2)c2ccc(/N=N/c3ccc(/N=N/c4cc(C)c(C#N)c(C)c4)cc3)cc2)cc1` (repeat unit), for which the glass transition temperature amounted to 120.00 °C.
Turning to `*CCC(=O)Nc1ccc(Cc2ccc(NC(=O)CCN3C(=O)c4ccc(C(=O)c5ccc6c(c5)C(=O)N(*)C6=O)cc4C3=O)cc2)cc1` (repeat unit), the glass transition temperature turned out to be 221.00 °C.
For `*CCC(=O)Nc1ccc(Oc2ccc(Oc3ccc(NC(=O)CCN4C(=O)c5ccc(C(=O)c6ccc7c(c6)C(=O)N(*)C7=O)cc5C4=O)cc3)cc2)cc1` (repeat unit) the value was 221.00 °C; for `*CCC(C)C(C)CCNC(=O)c1cccc(C(=O)N*)c1` (repeat unit), 125.00 °C.
`*CCC(C)O*` (repeat unit) displayed a glass transition temperature of -50.00 °C.
Consider `*CCCCSS*` (repeat unit), for which the glass transition temperature is -55.00 °C.
In turn, `*CCC[Si](*)(c1ccc(C)cc1)c1ccc(C)cc1` (repeat unit) gave a glass transition temperature of 38.00 °C.
For `*CCN(*)C(=O)CC` (repeat unit) the value was 60.00 °C; for `*CCN(*)C(=O)CC(C)C` (repeat unit), 30.00 °C.
For `*CCN(*)C(=O)CC12CC3CC(CC(C3)C1)C2` (repeat unit), the glass transition temperature was 139.00 °C.
Turning to `*CCN(*)C(=O)CCC(=O)OC` (repeat unit), the glass transition temperature was 31.00 °C.
Regarding `*CCN(*)C(=O)CCCCCC` (repeat unit), the glass transition temperature amounted to 10.00 °C.
Compound `*CCN(*)C(=O)CCCCCCCCCCC` (repeat unit) returned a glass transition temperature of 10.00 °C.
`*CCN(*)C(=O)CSC` (repeat unit) returned a glass transition temperature of 39.00 °C.
For `*CCN(*)C(=O)Cc1ccc(C(F)(F)F)cc1` (repeat unit) the value was 75.00 °C.
For `*CCN(*)C(=O)c1c(F)ccc(F)c1F` (repeat unit), the glass transition temperature amounted to 124.00 °C.
In turn, `*CCN(*)C(=O)c1cc(F)cc(F)c1` (repeat unit) had a glass transition temperature of 106.00 °C.
The compound `*CCN(*)C(=O)c1cc(F)ccc1F` (repeat unit) yielded a glass transition temperature of 112.00 °C.
For `*CCN(*)C(=O)c1ccc(F)c(F)c1` (repeat unit) the value was 101.00 °C; for `*CCN(*)C(=O)c1ccc(SC(F)(F)F)cc1` (repeat unit), 100.00 °C.
As for `*CCN(*)C(=O)c1ccc2ccccc2c1` (repeat unit), the glass transition temperature was determined as 130.00 °C.
With `*CCN(*)C(C)=O` (repeat unit), the glass transition temperature worked out at 80.00 °C.
As for `*CCN(CCN1C(=O)c2ccc(C(c3ccc4c(c3)C(=O)N(*)C4=O)(C(F)(F)F)C(F)(F)F)cc2C1=O)c1ccc(/C=C/C2=CC(=C(C#N)C#N)CC(C)(C)C2)cc1` (repeat unit), the glass transition temperature is 224.00 °C.
The result for `*CCN(CCN1C(=O)c2ccc(C(c3ccc4c(c3)C(=O)N(*)C4=O)(C(F)(F)F)C(F)(F)F)cc2C1=O)c1ccc(/N=N/c2ccc([N+](=O)[O-])cc2C)cc1` (repeat unit) reads 205.00 °C.
`*CCN(CCOC(=O)Nc1ccc(C)c(NC(=O)O*)c1)c1ccc(/N=N/c2ccc(/C=C/c3nc4ccc([N+](=O)[O-])cc4n3CC)cc2)cc1` (repeat unit): the glass transition temperature worked out at 171.00 °C.
Compound `*CCN(CCOC(=O)Nc1ccc(C)c(NC(=O)O*)c1)c1ccc(/N=N/c2ccc(B(c3c(C)cc(C)cc3C)c3c(C)cc(C)cc3C)cc2)cc1` (repeat unit) gave a glass transition temperature of 159.00 °C.
`*CCN(CCOC(=O)Nc1ccc(C)c(NC(=O)O*)c1)c1ccc(/N=N/c2ccc([N+](=O)[O-])cc2C)c(C)c1` (repeat unit): the glass transition temperature came out at 135.00 °C.
Consider `*CCN(CCOC(=O)Nc1ccc(C)c(NC(=O)O*)c1)c1ccc([N+](=O)[O-])cc1C` (repeat unit), for which the glass transition temperature was determined as 98.00 °C.
For `*CCN(CCOC(=O)Nc1ccc(Cc2ccc(NC(=O)O*)cc2)cc1)c1ccc(/N=N/c2ccc([N+](=O)[O-])cc2)c(C)c1` (repeat unit) the value was 115.00 °C.
Regarding `*CCN(CCOC(=O)Nc1ccc(Cc2ccc(NC(=O)O*)cc2)cc1)c1ccc(/N=N/c2ccc([N+](=O)[O-])cc2C)c(C)c1` (repeat unit), the glass transition temperature amounted to 130.00 °C.
Compound `*CCN(CCOC(=O)c1cccc(C(=O)O*)c1)c1ccc(/N=N/c2ccc(-c3nc4ccc([N+](=O)[O-])cc4n3CC)cc2)cc1` (repeat unit) gave a glass transition temperature of 147.00 °C.
Take `*CCOC(=O)CCSCCC(=O)O*` (repeat unit): the glass transition temperature is -43.00 °C.
The result for `*CCOCCC(=O)O*` (repeat unit) reads -35.00 °C; that for `*CCOCCOCCOC(=O)CCSCCC(=O)O*` (repeat unit), -35.00 °C; that for `*CCOCCOCCOCCOCCOC(=O)CCSCCC(=O)O*` (repeat unit), -39.00 °C.
In the case of `*Oc1ccc(C(=O)OCCN(CCOC(=O)c2ccc(OC3(F)C(*)(F)C(F)(F)C3(F)F)cc2)c2ccc(/C=C/C3=CC(=C(C#N)C#N)CC(C)(C)C3)cc2)cc1` (repeat unit), the glass transition temperature is 143.00 °C.
Take `*Oc1ccc(CC(NC(=O)CCc2ccc(OC(=O)CCCC(*)=O)cc2)C(=O)OCc2ccccc2)cc1` (repeat unit): the glass transition temperature was 66.00 °C.
For `*Oc1ccc(NC(=O)c2cc(C(=O)Nc3ccc(*)cc3)cc(C(C)(C)C)c2)cc1` (repeat unit) the value was 268.00 °C; for `*Oc1ccc(NC(=O)c2cc(C(=O)Nc3ccc(Oc4ccc(C(c5ccc(*)cc5)(C(F)(F)F)C(F)(F)F)cc4)cc3)cc(C(C)(C)C)c2)cc1` (repeat unit), 255.50 °C.
For the compound `*Oc1ccc(NC(=O)c2cc(NC(=O)CCCCCCCCCCN3C(=O)c4ccccc4C3=O)cc(C(=O)Nc3ccc(*)cc3)c2)cc1` (repeat unit), the glass transition temperature came out at 160.00 °C.
The result for `*Oc1ccc(NC(=O)c2cc(NC(=O)c3ccc(OC(C)=O)cc3)cc(C(=O)Nc3ccc(*)cc3)c2)cc1` (repeat unit) reads 273.00 °C; that for `*c1ccc(OCCN(CCOc2ccc(-c3nc4ccc(Oc5ccc6nc(*)c(-c7ccccc7)nc6c5)cc4nc3-c3ccccc3)cc2)c2ccc(/C=C/c3ccc([N+](=O)[O-])cc3)cc2)cc1` (repeat unit), 201.00 °C; that for `*c1ccc2c(c1)C(=O)N(c1ccc(N(C)CCN(C)c3ccc(N4C(=O)c5ccc(C(*)(C(F)(F)F)C(F)(F)F)cc5C4=O)cc3)cc1)C2=O` (repeat unit), 227.00 °C.
